One assay concerns the target T1, CDK9/CycT1 (Homo sapiens, UniProt P50750).
T1 construct: Recombinant full-length His-tagged human CDK9 and CycT1; His; purchased Invitrogen PV4131; host or cells: insect cells
In words: CDK9/CycT1 high ATP kinase assay (Method 1b). Type of assay: biochemical. The following applies: 2 mM ATP. As to the method:
1b. CDK9/CycT1 High ATP Kinase Assay
CDK9/CycT1-inhibitory activity of compounds of the present invention at a high ATP concentration after preincubation of enzyme and test compounds was quantified employing the CDK9/CycT1 TR-FRET assay as described in the following paragraphs.
Recombinant full-length His-tagged human CDK9 and CycT1, expressed in insect cells and purified by Ni-NTA affinity chromatography, were purchase from Invitrogen (Cat. No PV4131). As substrate for the kinase reaction biotinylated peptide biotin-Ttds-YISPLKSPYKISEG (C-terminus in amid form) was used which can be purchased e.g. form the company JERINI peptide technologies (Berlin, Germany).
For the assay 50 nl of a 100 fold concentrated solution of the test compound in DMSO was pipetted into a black low volume 384 well microtiter plate (Greiner Bio-One, Frickenhausen, Germany), 2 μl of a solution of CDK9/CycT1 in aqueous assay buffer [50 mM Tris/HCl pH 8.0, 10 mM MgCl2, 1.0 mM dithiothreitol, 0.1 mM sodium ortho-vanadate, 0.01% (v/v) Nonidet-P40 (Sigma)] were added and the mixture was incubated for 15 min at 22° C. to allow pre-binding of the test compounds to the enzyme before the start of the kinase reaction. Then the kinase reaction was started by the addition of 3 μl of a solution of adenosine-tri-phosphate (ATP, 3.3 mM=>final conc. in the 5 μl assay volume is 2 mM) and substrate (1.67 μM=>final conc. in the 5 μl assay volume is 1 μM) in assay buffer and the resulting mixture was incubated for a reaction time of 25 min at 22° C. The concentration of CDK9/CycT1 was adjusted depending of the activity of the enzyme lot and was chosen appropriate to have the assay in the linear range, typical concentrations were in the range of 0.5 μg/ml. The reaction was stopped by the addition of 5 μl of a solution of TR-FRET detection reagents (0.2 μM streptavidine-XL665 [Cisbio Bioassays, Codolet, France] and 1 nM anti-RB(pSer807/pSer811)-antibody from BD Pharmingen [#558389] and 1.2 nM LANCE EU-W1024 labeled anti-mouse IgG antibody [Perkin-Elmer, product no. AD0077]) in an aqueous EDTA-solution (100 mM EDTA, 0.2% (w/v) bovine serum albumin in 100 mM HEPES/NaOH pH 7.0).
The resulting mixture was incubated 1 h at 22° C. to allow the formation of complex between the phosphorylated biotinylated peptide and the detection reagents. Subsequently the amount of phosphorylated substrate was evaluated by measurement of the resonance energy transfer from the Eu-chelate to the streptavidine-XL. Therefore, the fluorescence emissions at 620 nm and 665 nm after excitation at 350 nm was measured in a HTRF reader, e.g. a Rubystar (BMG Labtechnologies, Offenburg, Germany) or a Viewlux (Perkin-Elmer). The ratio of the emissions at 665 nm and at […] was taken as the measure for the amount of phosphorylated substrate. The data were normalised (enzyme reaction without inhibitor=0% inhibition, all other assay components but no enzyme=100% inhibition).

The subject of the next assay is Caco-2 cells. The assay can be described thus: Proliferation assay, Caco-2 (Method 3). Type of assay: cell-based, human. As to conditions: 4 days, crystal violet, read-out: Inhibition of Caco-2 cell proliferation IC50. How it is done: (§1) Cultivated tumour cells (HeLa, human cervical tumour cells, ATCC CCL-2; NCI-H460, human non-small cell lung carcinoma cells, ATCC HTB-177; A2780, human ovarian carcinoma cells, ECACC #93112519; DU 145, hormone-independent human prostate carcinoma cells, ATCC HTB-81; HeLa-MaTu-ADR, multidrug-resistant human cervical carcinoma cells, EPO-GmbH Berlin; Caco-2, human colorectal carcinoma cells, ATCC HTB-37; B16F10, mouse melanoma cells, ATCC CRL-6475) were plated at a density of 5,000 cells/well (DU145, HeLa-MaTu-ADR), 3,000 cells/well (NCI-H460, HeLa), 2,500 cells/well (A2780), 1,500 cells/well (Caco-2), or 1,000 cells/well (B16F10) in a 96-well multititer plate in 200 μL of their respective growth medium supplemented 10% fetal calf serum. After 24 hours, the cells of one plate (zero-point plate) were stained with crystal violet (see below), while the medium of the other plates was replaced by fresh culture medium (200 μl), to which the test substances were added in various concentrations (0 μM, as well as in the range of 0.001-10 μM; the final concentration of the solvent dimethyl sulfoxide was 0.5%). The cells were incubated for 4 days in the presence of test substances. Cell proliferation was determined by staining the cells with crystal violet: the cells were fixed by adding 20 μl/measuring point of an 11% glutaric aldehyde solution for 15 minutes at room temperature. After three washing cycles of the fixed cells with water, the plates were dried at room temperature. The cells were stained by adding 100 μl/measuring point of a 0.1% crystal violet solution (pH 3.0). After three washing cycles of the stained cells with water, the plates were dried at room temperature. The dye was dissolved by adding 100 μl/measuring point of a 10% acetic acid solution. The extinction was determined by photometry at a wavelength of 595 nm. The change of cell number, in percent, was calculated by normalization of the measured values to the extinction values of the zero-point plate (=0%) and the extinction of the untreated (0 μm) cells (=100%). The IC50 values (inhibitory concentration at 50% of maximal effect) were determined by means of a 4 parameter fit.

The next assay deals with HeLa cells. The assay can be described thus: Proliferation assay, HeLa (Method 3). Type of assay: cell-based, human. The following applies: 4 days, crystal violet, read-out: Inhibition of HeLa cell proliferation IC50. As to the method:
as §1

The subject of another assay is MOLM-13 cells. In words: Proliferation assay, MOLM-13 (Method 3). The assay is classed as cell-based, human. The following applies: 72-hour exposure, Cell Titre-Glo, read-out: Inhibition of MOLM 13 cell proliferation IC50. How it is done:
Non-adherent MOLM-13 human acute myeloid leukemia cells (DSMZ ACC 554) were seeded at a density of 5,000 cells/well in a 96-well multititer plate in 100 μL of growth medium supplemented 10% fetal calf serum. After 24 hours, cell viability of one plate (zero-point plate) was determined with the Cell Titre-Glo Luminescent Cell Viability Assay (Promega), while 50 μl of test compound containing medium was added to the wells of the other plates (final concentrations in the range of 0.001-10 μM and DMSO controls; the final concentration of the solvent dimethyl sulfoxide was 0.5%). Cell viability was assessed after 72-hour exposure with the Cell Titre-Glo Luminescent Cell Viability Assay (Promega). IC50 values (inhibitory concentration at 50% of maximal effect) were determined by means of a 4 parameter fit on measurement data which were normalized to vehicle (DMSO) treated cells (=100%) and measurement readings taken immediately before compound exposure (=0%).

Where two headings read alike, the source gives them in different places.

This is an account of results in patent US9650361B2, “N-(pyridin-2-yl)pyrimidin-4-amine derivatives containing a sulfoximine group” (BAYER PHARAM AKTIENGESELLSCHAFT, priority 2012, dated 2017).

T1 sequence (P50750 whole entry): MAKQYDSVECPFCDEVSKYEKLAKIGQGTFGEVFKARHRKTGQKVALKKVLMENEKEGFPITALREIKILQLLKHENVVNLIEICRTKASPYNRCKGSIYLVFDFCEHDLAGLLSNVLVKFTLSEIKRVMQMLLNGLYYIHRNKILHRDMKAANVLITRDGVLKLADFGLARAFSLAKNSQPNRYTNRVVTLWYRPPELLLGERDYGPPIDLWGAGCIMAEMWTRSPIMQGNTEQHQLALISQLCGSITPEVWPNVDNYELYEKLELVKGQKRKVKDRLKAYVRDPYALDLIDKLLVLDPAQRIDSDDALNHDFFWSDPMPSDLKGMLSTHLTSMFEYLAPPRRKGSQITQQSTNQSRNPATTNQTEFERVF
T1 sequence (O60563 whole entry partner): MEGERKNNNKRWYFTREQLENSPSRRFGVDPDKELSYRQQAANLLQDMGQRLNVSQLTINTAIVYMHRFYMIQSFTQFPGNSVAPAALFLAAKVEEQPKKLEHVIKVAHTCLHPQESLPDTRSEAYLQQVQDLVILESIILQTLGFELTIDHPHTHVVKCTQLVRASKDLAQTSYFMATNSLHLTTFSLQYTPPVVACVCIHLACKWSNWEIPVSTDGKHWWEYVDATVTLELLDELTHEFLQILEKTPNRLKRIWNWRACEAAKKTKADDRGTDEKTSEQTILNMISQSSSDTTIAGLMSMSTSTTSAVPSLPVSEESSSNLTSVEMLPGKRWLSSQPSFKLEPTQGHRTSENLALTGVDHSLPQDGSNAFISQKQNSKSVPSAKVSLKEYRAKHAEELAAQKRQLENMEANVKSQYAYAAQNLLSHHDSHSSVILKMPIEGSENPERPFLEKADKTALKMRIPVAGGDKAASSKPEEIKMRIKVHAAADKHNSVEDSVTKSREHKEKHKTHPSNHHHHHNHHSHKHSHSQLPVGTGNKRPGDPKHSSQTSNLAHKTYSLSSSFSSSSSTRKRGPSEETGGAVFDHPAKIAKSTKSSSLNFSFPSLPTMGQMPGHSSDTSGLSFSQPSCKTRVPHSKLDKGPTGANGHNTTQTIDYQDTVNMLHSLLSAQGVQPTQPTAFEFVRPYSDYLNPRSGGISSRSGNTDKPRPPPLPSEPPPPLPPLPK

As to `COc1cc(F)ccc1-c1cc(Nc2cc(CS(C)(=N)=O)ccn2)ncn1` (racemic) [Example 1, (rac)-6-(4-Fluoro-2-methoxyphenyl)-N-{4-[(S-methylsulfonimidoyl)methyl]pyridin-2-yl}pyrimidin-4-amine], the IC50 was determined as 49 nM against CDK9/CycT1; 537 nM in the assay on Caco-2 cells (Homo sapiens, Caco-2, 96 h); 477 nM with HeLa cells (Homo sapiens, HeLa, 96 h).
`COc1cc(F)ccc1-c1cc(Nc2cc(CS(C)(=N)=O)cc(Cl)n2)ncn1` (racemic) [Example 4, (rac)-N-{6-Chloro-4-[(S-methylsulfonimidoyl)methyl]pyridin-2-yl}-6-(4-fluoro-2-methoxyphenyl)pyrimidin-4-amine]: the IC50 on CDK9/CycT1 amounted to 11 nM; in the assay on Caco-2 cells (Homo sapiens, Caco-2, 96 h) it was 145 nM; in the assay with MOLM-13 cells (Homo sapiens, MOLM-13, 72 h), 47 nM; with HeLa cells (Homo sapiens, HeLa, 96 h) it was 109 nM.
For the compound `COc1cc(F)ccc1-c1cc(Nc2cc(CS(C)(=N)=O)cc(C)n2)ncn1` (racemic) [Example 7, (rac)-6-(4-Fluoro-2-methoxyphenyl)-N-{6-methyl-4-[(S-methylsulfonimidoyl)methyl]pyridin-2-yl}pyrimidin-4-amine], the IC50 at CDK9/CycT1 was 4 nM; with Caco-2 cells (Homo sapiens, Caco-2, 96 h) it was 230 nM; with MOLM-13 cells (Homo sapiens, MOLM-13, 72 h), 53 nM; in the assay on HeLa cells (Homo sapiens, HeLa, 96 h) it was 121 nM.
Take `COc1cc(F)ccc1-c1cc(Nc2cc(CS(C)(=N)=O)cc(C(F)(F)F)n2)ncn1` (racemic) [Example 10, (rac)-6-(4-Fluoro-2-methoxyphenyl)-N-{4-[(S-methylsulfonimidoyl)methyl]-6-(trifluoromethyl)pyridin-2-yl}pyrimidin-4-amine]: the IC50 against CDK9/CycT1 is 3 nM; in the assay on Caco-2 cells (Homo sapiens, Caco-2, 96 h) it was 116 nM; in the assay on MOLM-13 cells (Homo sapiens, MOLM-13, 72 h) it was 32 nM; in the assay on HeLa cells (Homo sapiens, HeLa, 96 h), 60 nM.
As to `COc1cc(F)ccc1-c1cc(Nc2cc(CS(C)(=N)=O)ccn2)ncn1` (single isomer, unassigned) [Example 2, 6-(4-Fluoro-2-methoxyphenyl)-N-{4-[(S-methylsulfonimidoyl)methyl]pyridin-2-yl}pyrimidin-4-amine], the IC50 worked out at 30 nM on CDK9/CycT1; 189 nM in the assay on MOLM-13 cells; 456 nM with HeLa cells (Homo sapiens, HeLa, 96 h).
As to `COc1cc(F)ccc1-c1cc(Nc2cc(CS(C)(=N)=O)ccn2)ncn1` (single isomer, unassigned) [Example 3, 6-(4-Fluoro-2-methoxyphenyl)-N-{4-[(S-methylsulfonimidoyl)methyl]pyridin-2-yl}pyrimidin-4-amine], the IC50 came to 10 nM on CDK9/CycT1, 80 nM with MOLM-13 cells and 850 nM in the assay with HeLa cells.
Take `COc1cc(F)ccc1-c1cc(Nc2cc(CS(C)(=N)=O)cc(Cl)n2)ncn1` (single isomer, unassigned) [Example 5, N-{6-Chloro-4-[(S-methylsulfonimidoyl)methyl]pyridin-2-yl}-6-(4-fluoro-2-methoxyphenyl)pyrimidin-4-amine]: the IC50 is 9 nM at CDK9/CycT1; 166 nM in the assay on Caco-2 cells (Homo sapiens, Caco-2, 96 h); 33 nM with MOLM-13 cells (Homo sapiens, MOLM-13, 72 h); 104 nM in the assay on HeLa cells (Homo sapiens, HeLa, 96 h).
For the compound `COc1cc(F)ccc1-c1cc(Nc2cc(CS(C)(=N)=O)cc(Cl)n2)ncn1` (single isomer, unassigned) [Example 6, N-{6-Chloro-4-[(S-methylsulfonimidoyl)methyl]pyridin-2-yl}-6-(4-fluoro-2-methoxyphenyl)pyrimidin-4-amine], the IC50 at CDK9/CycT1 is 5 nM; with Caco-2 cells it was 177 nM; in the assay on MOLM-13 cells it was 44 nM; with HeLa cells it was 104 nM.
On to `COc1cc(F)ccc1-c1cc(Nc2cc(CS(C)(=N)=O)cc(C)n2)ncn1` (single isomer, unassigned) [Example 8, 6-(4-Fluoro-2-methoxyphenyl)-N-{6-methyl-4-[(S-methylsulfonimidoyl)methyl]pyridin-2-yl}pyrimidin-4-amine], for which the IC50 stood at 6 nM at CDK9/CycT1; 246 nM in the assay on Caco-2 cells (Homo sapiens, Caco-2, 96 h); 64 nM with MOLM-13 cells (Homo sapiens, MOLM-13, 72 h); 118 nM in the assay with HeLa cells.
Take `COc1cc(F)ccc1-c1cc(Nc2cc(CS(C)(=N)=O)cc(C)n2)ncn1` (single isomer, unassigned) [Example 9, 6-(4-Fluoro-2-methoxyphenyl)-N-{6-methyl-4-[(S-methylsulfonimidoyl)methyl]pyridin-2-yl}pyrimidin-4-amine]: the IC50 against CDK9/CycT1 was determined as 2 nM; with Caco-2 cells it was 212 nM; with MOLM-13 cells, 43 nM; in the assay with HeLa cells, 52 nM.
